Test system: 276233-004-R-J1-PDC complex spheroid viability
Experiment: Anticancer human tumor 276233-004-R-J1-PDC patient-derived colon adenocarcinoma cell line growth inhibition [GQUAD]
Conditions: for IC50: curve of first compound; for viability, T/C: stronger effect = lower value
Summary of the method: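 Tumor cells were grown as complex spheroids with HUVEC endothelial cells and mesenchymal stem cells as stroma. G-quadruplex stabilizers were combined with targeted agents over half-log dilutions from near the clinical Cmax, or from 10 microM.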

[1] = second compound 0.0316 µM, first compound 0.0316 µM
[2] = second compound 0.0316 µM, first compound 0.1 µM
[3] = second compound 0.0316 µM, first compound 0.316 µM
[4] = second compound 0.0316 µM, first compound 1 µM
[5] = second compound 0.0316 µM, first compound 3.16 µM
[6] = second compound 0.0316 µM, first compound 10 µM
[7] = second compound 0.1 µM, first compound 0.0316 µM
[8] = second compound 0.1 µM, first compound 0.1 µM
[9] = second compound 0.1 µM, first compound 0.316 µM
[10] = second compound 0.1 µM, first compound 1 µM
[11] = second compound 0.1 µM, first compound 3.16 µM
[12] = second compound 0.1 µM, first compound 10 µM
[13] = second compound 0.316 µM, first compound 0.0316 µM
[14] = second compound 0.316 µM, first compound 0.1 µM
[15] = second compound 0.316 µM, first compound 0.316 µM
[16] = second compound 0.316 µM, first compound 1 µM
[17] = second compound 0.316 µM, first compound 3.16 µM
[18] = second compound 0.316 µM, first compound 10 µM
[19] = second compound 1 µM, first compound 0.0316 µM
[20] = second compound 1 µM, first compound 0.1 µM
[21] = second compound 1 µM, first compound 0.316 µM
[22] = second compound 1 µM, first compound 1 µM
[23] = second compound 1 µM, first compound 3.16 µM
[24] = second compound 1 µM, first compound 10 µM
[25] = second compound 3.16 µM, first compound 0.0316 µM
[26] = second compound 3.16 µM, first compound 0.1 µM
[27] = second compound 3.16 µM, first compound 0.316 µM
[28] = second compound 3.16 µM, first compound 1 µM
[29] = second compound 3.16 µM, first compound 3.16 µM
[30] = second compound 3.16 µM, first compound 10 µM
[31] = second compound 10 µM, first compound 0.0316 µM
[32] = second compound 10 µM, first compound 0.1 µM
[33] = second compound 10 µM, first compound 0.316 µM
[34] = second compound 10 µM, first compound 1 µM
[35] = second compound 10 µM, first compound 3.16 µM
[36] = second compound 10 µM, first compound 10 µM
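Note: spheroids exposed to drugs for seven days.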
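Throughout, for viability, T/C: 100% = DMSO vehicle control viability.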

## CC1COCCN1c1cc(C2(S(C)(=N)=O)CC2)nc(-c2ccnc3[nH]ccc23)n1 (stereo unspecified) + Cc1cnc(CNC(=O)c2c(=O)c3ccc(N4CCCN(C)CC4)nc3n3c2sc2ccccc23)cn1
Second compound 0.0316 µM
  IC50: > 10 µM
Second compound 0.1 µM
  IC50: > 10 µM
Second compound 0.316 µM
  IC50: > 10 µM
Second compound 1 µM
  IC50: > 10 µM
Second compound 3.16 µM
  IC50: 5.9 µM
Second compound 10 µM
  IC50: > 10 µM
[1]
  viability, T/C: 99%
[2]
  viability, T/C: 72.1%
[3]
  viability, T/C: 90.8%
[4]
  viability, T/C: 77.4%
[5]
  viability, T/C: 75.3%
[6]
  viability, T/C: 60.2%
[7]
  viability, T/C: 82%
[8]
  viability, T/C: 76.5%
[9]
  viability, T/C: 76%
[10]
  viability, T/C: 92.6%
[11]
  viability, T/C: 80.2%
[12]
  viability, T/C: 64.5%
[13]
  viability, T/C: 75.2%
[14]
  viability, T/C: 87.8%
[15]
  viability, T/C: 83.5%
[16]
  viability, T/C: 78.2%
[17]
  viability, T/C: 79.1%
[18]
  viability, T/C: 58.6%
[19]
  viability, T/C: 75.8%
[20]
  viability, T/C: 72.3%
[21]
  viability, T/C: 72.9%
[22]
  viability, T/C: 58.7%
[23]
  viability, T/C: 70.9%
[24]
  viability, T/C: 53%
[25]
  viability, T/C: 64.5%
[26]
  viability, T/C: 67.6%
[27]
  viability, T/C: 75.4%
[28]
  viability, T/C: 69.3%
[29]
  viability, T/C: 57%
[30]
  viability, T/C: 41.9%
[31]
  viability, T/C: 63.3%
[32]
  viability, T/C: 66%
[33]
  viability, T/C: 73%
[34]
  viability, T/C: 58.8%
[35]
  viability, T/C: 65%
[36]
  viability, T/C: 42.8%

## COc1ccc([C@@H](O)c2cc(-c3ncnc4cc(N5CCOCC5)ccc34)c(F)cc2Cl)nn1 + Cc1cnc(CNC(=O)c2c(=O)c3ccc(N4CCCN(C)CC4)nc3n3c2sc2ccccc23)cn1
Second compound 0.0316 µM
  IC50: 8.71 µM
Second compound 0.1 µM
  IC50: > 10 µM
Second compound 0.316 µM
  IC50: 4.4 µM
Second compound 1 µM
  IC50: 2.53 µM
Second compound 3.16 µM
  IC50: 1.77 µM
Second compound 10 µM
  IC50: 0.709 µM
[1]
  viability, T/C: 75.2%
[2]
  viability, T/C: 81.5%
[3]
  viability, T/C: 79.3%
[4]
  viability, T/C: 68.8%
[5]
  viability, T/C: 60.6%
[6]
  viability, T/C: 48.4%
[7]
  viability, T/C: 78.7%
[8]
  viability, T/C: 73.9%
[9]
  viability, T/C: 70.2%
[10]
  viability, T/C: 73.8%
[11]
  viability, T/C: 69.6%
[12]
  viability, T/C: 55.1%
[13]
  viability, T/C: 74.4%
[14]
  viability, T/C: 87.7%
[15]
  viability, T/C: 83.9%
[16]
  viability, T/C: 71%
[17]
  viability, T/C: 55.1%
[18]
  viability, T/C: 39.3%
[19]
  viability, T/C: 73.6%
[20]
  viability, T/C: 77.9%
[21]
  viability, T/C: 75.2%
[22]
  viability, T/C: 63%
[23]
  viability, T/C: 47.4%
[24]
  viability, T/C: 33.7%
[25]
  viability, T/C: 69.2%
[26]
  viability, T/C: 69.3%
[27]
  viability, T/C: 70%
[28]
  viability, T/C: 56.2%
[29]
  viability, T/C: 43.1%
[30]
  viability, T/C: 34%
[31]
  viability, T/C: 65%
[32]
  viability, T/C: 58.1%
[33]
  viability, T/C: 70%
[34]
  viability, T/C: 43.9%
[35]
  viability, T/C: 43.2%
[36]
  viability, T/C: 30.9%

## O=C(c1cc(Cc2n[nH]c(=O)c3ccccc23)ccc1F)N1CCN(C(=O)C2CC2)CC1 + Cc1cnc(CNC(=O)c2c(=O)c3ccc(N4CCCN(C)CC4)nc3n3c2sc2ccccc23)cn1
Second compound 0.0316 µM
  IC50: > 10 µM
Second compound 0.1 µM
  IC50: > 10 µM
Second compound 0.316 µM
  IC50: > 10 µM
Second compound 1 µM
  IC50: > 10 µM
Second compound 3.16 µM
  IC50: > 10 µM
Second compound 10 µM
  IC50: > 10 µM
[1]
  viability, T/C: 80.1%
[2]
  viability, T/C: 85%
[3]
  viability, T/C: 89.3%
[4]
  viability, T/C: 79.3%
[5]
  viability, T/C: 90.8%
[6]
  viability, T/C: 91.6%
[7]
  viability, T/C: 81.1%
[8]
  viability, T/C: 92.8%
[9]
  viability, T/C: 82.2%
[10]
  viability, T/C: 83.8%
[11]
  viability, T/C: 85.5%
[12]
  viability, T/C: 83%
[13]
  viability, T/C: 96%
[14]
  viability, T/C: 91.4%
[15]
  viability, T/C: 83.4%
[16]
  viability, T/C: 81.8%
[17]
  viability, T/C: 96.7%
[18]
  viability, T/C: 73.5%
[19]
  viability, T/C: 69.9%
[20]
  viability, T/C: 77.1%
[21]
  viability, T/C: 91.2%
[22]
  viability, T/C: 75.5%
[23]
  viability, T/C: 83.8%
[24]
  viability, T/C: 67.3%
[25]
  viability, T/C: 76.9%
[26]
  viability, T/C: 70%
[27]
  viability, T/C: 61.1%
[28]
  viability, T/C: 68.4%
[29]
  viability, T/C: 77.2%
[30]
  viability, T/C: 72.7%
[31]
  viability, T/C: 74.5%
[32]
  viability, T/C: 68.1%
[33]
  viability, T/C: 80.2%
[34]
  viability, T/C: 62.5%
[35]
  viability, T/C: 77.8%
[36]
  viability, T/C: 53.2%
